Where a name gives a salt, the structure may show the parent alone.
Experiments:
[1] = Drug (paclitaxel) loading into NLPs, quantified by reverse phase HPLC after SEC purification; type: physicochemical; conditions: for amount of paclitaxel loaded into NLPs (mass of drug over total mass of particle components): NLPs prepared with the named lysophospholipid at 50 mol % content
Experimental: For NLP assemblies using DOPC as the membrane forming lipid with apoE422k, the total lipid-to-apoE422K molar ratio was 80:1. Briefly, lipids were either prepared or obtained in chloroform and aliquoted into glass vials. Chloroform was then removed using a stream of N2 under agitation to form a thin lipid film. Lipids were solubilized in PBS buffer (137 mM sodium chloride, 2.7 mM potassium chloride, 10 mM phosphate buffer, pH 7.4) using 30 mM sodium cholate. After addition of the apoE422k (150 μM in final assembly volume), samples were incubated at 23.8° C. for at least 2 hours.
Assemblies were dialyzed overnight against PBS to remove cholate. Samples were subsequently analyzed and purified by SEC (size exclusion chromatography) (Superdex 200, 10/300 GL column, GE Healthcare, Piscataway, N.J.) in PBS buffer (0.5 mL/min flow rate). The exclusion limit of the column was determined with Blue Dextran 2000. SEC fractions (500 μl) were collected every 60 s. SEC fractions containing homogeneous NLP populations were concentrated using 50 kDa MWCO spin concentrators (Sartorius). The apoE422k concentration was determined using NanoDrop (Thermo Scientific). The concentrated NLP samples were then stored at 4° C. until further use.
The solution was then spun down to remove any precipitate, and then the supernatant was purified by SEC (GE HiTrap desalting column) in PBS buffer (0.5 ml/min flow rate). The collected fractions containing NLP were then analyzed by reverse phase HPLC to quantify each component of the NLP.
The ability of the two NLP populations to accommodate the drug of interest, paclitaxel, was then assessed. Following addition of paclitaxel to the two solutions, the NLP solutions were re-purified to remove free paclitaxel. The solutions were then analyzed by reverse phase HPLC to assess the amount of paclitaxel that was incorporated into the particles.
Further experiments were carried out to assess the relationship between lysophospholipid content and paclitaxel loading. NLPs were prepared with initial lysophospholipid contents (lyso 14:0) between 0 and 70 mole percent (i.e. 0 mol %-70 mol %). After paclitaxel addition and subsequent purification, the composition of these particles was again analyzed using reverse phase HPLC.

[2] = compared with lyso 14:0, 16:0 and 18:0; cited from earlier work
[3] = pH 5, 7 or 9; cited from earlier work

## CCCCCCCCCCCCCC(=O)OC[C@@H](O)COP(=O)([O-])OCC[N+](C)(C)C [lyso 14:0, 1-tetradecanoyl-sn-glycero-3-phosphocholine]
[1]
  amount of paclitaxel loaded into NLPs (mass of drug over total mass of particle components): over 20%

## CCCCCCCC/C=C\CCCCCCCC(=O)OC[C@@H](O)COP(=O)([O-])OCC[N+](C)(C)C [lyso 18:1, 1-(9Z-octadecenoyl)-sn-glycero-3-phosphocholine]
[1]
  amount of paclitaxel loaded into NLPs (mass of drug over total mass of particle components): least amount
[2]
  aqueous solubility / CMC (in words): lowest solubility

## COc1cccc2c1C(=O)c1c(O)c3c(c(O)c1C2=O)C[C@@](O)(C(=O)CO)C[C@@H]3O[C@H]1C[C@H](N)[C@H](O)[C@H](C)O1 [doxorubicin hydrochloride]
[1]; regardless of whether a lysophospholipid is used as part of the drug loading process
  incorporation in NLPs: does not incorporate to a useful degree
[3]
  LogKow: 3.5

## CC(=O)O[C@H]1C(=O)[C@@]2(C)[C@H]([C@H](OC(=O)c3ccccc3)[C@]3(O)C[C@H](OC(=O)[C@H](O)[C@@H](NC(=O)c4ccccc4)c4ccccc4)C(C)=C1C3(C)C)[C@]1(OC(C)=O)CO[C@@H]1C[C@@H]2O [paclitaxel]
[1]; 10-20 mol % initial lysophospholipid (lyso 14:0)
  paclitaxel content in NLPs (mass of drug over total mass of particle components): approximately 5 % by mass
[1]; 30-60 mol % initial lysophospholipid (lyso 14:0)
  paclitaxel loading in NLPs (mass of drug over total mass of particle components): 10-20%
[1]; 30 mol % lysophospholipid group
  measured quantity of paclitaxel in NLPs: about 0.23 micrograms
[1]; 70 mol % initial lysophospholipid (lyso 14:0)
  paclitaxel loading in NLPs (mass of drug over total mass of particle components): > 30 % by mass
[1]; 70 mol % lysophospholipid group
  measured quantity of paclitaxel in NLPs: about 0.23 micrograms
[1]; NLPs with 40 mol % initial lysophospholipid (lyso 14:0), two SEC populations
  paclitaxel accepted by NLPs from second SEC peak versus larger particles from peak 1: substantially more
[1]; NLPs without lysophospholipids (0 mol % lyso 14:0), DOPC/apoE422k
  paclitaxel content in NLPs (mass of drug over total mass of particle components): 1-2 % by mass of the particle
[1]; when aided by lysophospholipid
  incorporation into NLP: capable of being incorporated into NLP to a useful mass percent

Reference: patent publication US20190307692A1, “NANOLIPOPROTEIN PARTICLES AND RELATED COMPOSITIONS METHODS AND SYSTEMS FOR IMPROVED DRUG LOADING” (Lawrence Livermore National Security, LLC, priority 2016, published 2019)
